Series [1] has as its system Lewis Lung (3LL) carcinoma model. Particulars: van Maldegem et al. 2021, cited from earlier work.
Series [2] has the same test system. The experiment in a line: Imaging mass cytometry of Lewis Lung (3LL) carcinoma lungs after 7 days MRTX1257 or Vehicle; spatial community analysis. Type of series: in vivo, C57BL/6 mice. As for the experimental part:
Two datasets of IMC data generated from an in vivo experiment in which the Lewis Lung (3LL) carcinoma model was treated with the KRAS-G12C inhibitor MRTX1257 for 7 days prior to harvesting of the lungs were published previously in van Maldegem et al. (2021), Nat. Commun. 12:5906 (dataset 1) and Mugarza et al. (2022), Sci. Adv. 8: eabm8780 (dataset 2).
Following 3 weeks, mice were treated with either 50 mg/kg MRTX1257 or Vehicle for 7 consecutive days. Mice were sacrificed on day 8 and lungs were harvested and frozen. Tumors of 3 mice from each treatment group for dataset 1 and 4 mice from each treatment group for dataset 2 were processed for imaging mass cytometry. Tissue slices were stained with a cocktail of antibodies conjugated to heavy metal isotopes and images were obtained using a Hyperion Imaging Mass Cytometer (Standard BioTools). Different antibody panels were used for the generation of datasets 1 and 2 (FIGS. 1A and 1B). In total, 6 images were acquired from both Vehicle and MRTX1257 groups for dataset 1, and the Vehicle group for dataset 2, and 5 images were acquired from the MRTX1257 group for dataset 2.
For further details on the in vivo study and IMC, including tissue processing, antibody staining, imaging acquisition and cell typing, reference is generally made to the Materials and Methods and Supplementary Materials provided by van Maldegem et al. (2021) and Mugarza et al. (2022), which are herewith incorporated by reference.
As described in van Maldegem et al. (2021), cellular neighbors were identified during segmentation using the CellProfiler module ‘Measure Object Neighbours’, following steps to identify individual cells. Neighbors were identified if a cell's boundary was within 15 μm (pixels) of the cell boundary of interest. Neighbor information was obtained for every cell object in each tissue.
Each ‘neighborhood’ was identified as a single cell and its local neighbors; defined by 15 μm object relationship output data from segmentation.
Expression values for each marker were normalized to the mean intensity of Xenon134. Following this, the data for each image across both treatment groups was concatenated, creating a size of 282,837 cells for dataset 1 and 626,070 cells for dataset 2. Each channel was then scaled to the 99th percentile. […] These clusters formed the basis to identify cell types present in the tissue, including tumor, lymphocytes, myeloid cells, fibroblasts, and endothelium. More details are available in van Maldegem et al., 2021 for dataset 1 and Mugarza et al., 2022 for dataset 2.
As described in van Maldegem et al., 2021, the neighbourhood method developed by Bodenmiller (https://github.com/BodenmillerGroup/neighbourhood; Schapiro et al., 2017, histoCAT: analysis of cell phenotypes and interactions in multiplex image cytometry data. Nat Methods 14, 873-876) was used to identify the enrichment of cell types within the 15-pixel neighborhood of each cell compared to random permutations of events, with a modification of only calculating enrichment in the CD8^+ T cell neighborhood, separated by community and using 1000 rounds of permutation. This was carried out for the community names T cell/normal adjacent community (T/NA), T cell/Type 1 macrophage community (T/M1), T cell/Dendritic cell community (T/DC), T cell/Type 2 macrophage community 1 (T/M2_1) and T cell/Type 2 macrophage community 2 (T/M2_2) communities for the MRTX1257 treatment setting.
Neighborhood enrichment analysis was also used for exploring cell pair relationships in the presence or absence of Tregs within the T/DC and T/M2_2 communities following MRTX treatment. Enrichment scores were only deemed statistically significant if the p-value when comparing real neighbors to randomized neighbors was ≤0.01.

Series [3] relates to orthotopic Lewis lung (3LL) NSCLC tumors. As to conditions: seven consecutive days of treatment; van Maldegem et al. 2021; cited from earlier work.
The subject of series [4] is KRAS-G12C mutant NSCLC. As to conditions: clinical trials; cited from earlier work.
The subject of series [5] is advanced melanoma. Particulars: Hodi et al. 2010; cited from earlier work.
Series [6] has as its target T1, CCR4 (Homo sapiens, UniProt P51679).
T1 construct: host or cells: Tregs, conventional CD4+ and CD8+ T cells (in vivo, cited study)
T1 sequence (P51679 1-360): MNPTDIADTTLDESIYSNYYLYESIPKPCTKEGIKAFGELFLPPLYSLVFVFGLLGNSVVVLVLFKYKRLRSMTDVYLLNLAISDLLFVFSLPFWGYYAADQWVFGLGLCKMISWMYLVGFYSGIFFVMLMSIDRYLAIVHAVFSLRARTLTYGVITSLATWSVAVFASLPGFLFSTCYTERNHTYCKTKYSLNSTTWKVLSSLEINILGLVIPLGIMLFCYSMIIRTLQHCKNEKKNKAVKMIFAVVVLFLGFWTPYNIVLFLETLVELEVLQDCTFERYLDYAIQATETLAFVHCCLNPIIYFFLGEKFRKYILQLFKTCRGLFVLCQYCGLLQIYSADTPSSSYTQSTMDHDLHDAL
Particulars: Kurose et al. 2015; cited from earlier work.

Turning to `C=CC(=O)N1CCN(c2nc(OC[C@@H]3CCCN3C)nc3c2CCN(c2cccc4cccc(C)c24)C3)C[C@@H]1CC#N` [MRTX1257], in series [1] (50 mg/kg MRTX1257 for 7 days vs Vehicle), the “immune phenotype of the tumor microenvironment” value is on record as “remodelled into a more inflammatory immune infiltrated TME”. Further, the “type 2 macrophage number and activation markers” value in series [1] (previously described) was “increased in cell number and upregulated activation markers such as PD-L1 and MHC-II”. In addition, the “frequency of c-casp3+ tumor cells in the CD8+ T cell close neighborhood” value in series [2] (T/DC community, 'No Tregs' neighborhoods, FIG. 25) was “increased”. The “Ki67 expression on CD4+ and CD8+ T cells” value in series [2] (T/DC community, dataset 2, FIG. 19A) is “significant increase”. The “occurrences of a c-casp3+ tumor cell in the 15-pixel neighborhood of a CD8+ T cell” value in series [2] (T/DC community, dataset 2, FIG. 19B) is reported as “increased”. In addition, the “images with CD4+ T cells and dendritic cells significantly enriched in the neighborhood of a CD8+ T cell” value in series [2] (T/DC community, vs random permutation, FIG. 21A) is recorded as “at least five out of the six images”. The “images with Treg cells significantly enriched in the neighborhood of CD8+ T cells” value in series [2] (T/DC community, FIG. 21A) was 3 out of the 6. Besides, the “mean expression of PD-1 on CD8+ T cells” value in series [2] (T/DC, T/M2_1 and T/M2_2 communities, most pronounced in T/DC, FIGS. 16A-16B) is on record as “an increase occurred”. For the same compound, the “PD-L1 expression on dendritic cells (accompanied by high CD86)” value in series [2] (T/DC, T/M2_1 and T/M2_2 communities, FIGS. 13A-13C) is given as “increased PD-L1 expression”. In addition, in series [2] (dataset 1, MRTX1257 vs Vehicle, FIG. 5), the “interactions between tumor cells and neutrophils (communities 5, 13, 14, 15)” value is given as “lost or dispersed”. For the same compound, the “mean expression of CXCL9 on dendritic cells and macrophages” value in series [2] (dataset 2, highest in T/DC community, FIG. 14) is given as “increased”. In series [2] (mainly in the T/DC community, FIG. 16D), the “mean expression of PD-1 on regulatory T cells” value is reported as “higher PD-1 expression”. The “count of regulatory T cells” value in series [2] (most notably in T/DC and T/M2_2 communities, FIG. 22) was “increased in size”. In addition, in series [2] (top 5 CD8+ T cell rich communities, MRTX1257 vs Vehicle, FIG. 11), the “spatial distribution and neighborhood environment of CD8+ T cells” value was “shift in spatial distribution and neighborhood environment”. For the same compound, the “percentage of PD-1+ CD8+ T cells that are positive for LAG-3” value in series [2] (tumor-associated communities following MRTX treatment, FIG. 17B) is on record as roughly 30%. For the same compound, the “tumor regression and growth” value in series [3] is “tumors did not regress although tumor growth was inhibited”.

Consider `C=CC(=O)N1CCN(c2nc(=O)n(-c3c(C)ccnc3C(C)C)c3nc(-c4c(O)cccc4F)c(F)cc23)[C@@H](C)C1` [sotorasib], for which, in series [4], the “patients achieving temporary disease control” value is reported as 80%.

Regarding “Ipilimumab: human anti-CTLA-4 antibody with IgG1 constant region, SEQ ID NO: 150 and 151”, the overall survival entry in series [5] was “improvement in overall survival”.

For “mogamulizumab: humanized, afucosylated monoclonal antibody targeting CC chemokine receptor 4 (CCR4)”, in series [6], the “CD8+ T cell numbers” value is recorded as “modest reductions”, the Treg depletion result is on record as “achieved” and the “conventional CD4+ T cells” value is on record as “significant depletion”.
